Consider 68 molecules from patent publication US10683311B2 (priority 2015, dated 2020).

System in the first data set: not listed separately
Nature of the data set: log P by HPLC on reversed-phase column (C18), EEC Directive 79/831 Annex V.A8. The format is physicochemical. The settings on record: Method A: 40° C., 0.1% aqueous formic acid and acetonitrile. Here is the method:
In table 1, the log P values were determined in accordance with EEC Directive 79/831 Annex V.A8 by HPLC (High Performance Liquid Chromatography) on a reversed-phase column (C18), using the methods described below:
Method A: temperature: 40° C.; mobile phases: 0.1% aqueous formic acid and acetonitrile; linear gradient from 10% acetonitrile to 95% acetonitrile;
Method B: temperature: 40° C.; mobile phases: 0.001 molar ammonium acetate solution in water and acetonitrile; linear gradient from 10% acetonitrile to 95% acetonitrile.
Calibration was carried out using unbranched alkan-2-ones (comprising 3 to 16 carbon atoms) with known log P values (determination of the log P values by the retention times using linear interpolation between two successive alkanones). lambda-max-values were determined using UV-spectra from 200 nm to 400 nm and the peak values of the chromatographic signals.
What is called logP is the decadic logarithm of the partition coefficient of the neutral form, usually between octanol and water. A lower logP goes with lower lipophilicity. For `Cc1nc2ccccc2cc1Oc1cccc(OC(F)(F)F)c1Br` [IIa.25], the logP is reported as 4.30.

The same data set, now with this note: logP Method A.
Molecule `Fc1ccc2nc(Oc3ccccc3Br)cnc2c1F` [IIb.01] showed a logP of 3.92.

`Cc1nc2c(F)c(F)ccc2nc1Oc1ccccc1Br` [IIb.02] displayed a logP of 4.38.

In turn, `Cc1cccc(Br)c1Oc1nc2ccc(F)c(F)c2nc1C` [IIb.03] returned a log partition coefficient (logP) of 4.80.

The molecule `Cc1nc2c(F)c(F)ccc2nc1Oc1c(F)cccc1Br` [IIb.04] yielded a logP of 2.67.

The molecule `Cc1nc2c(F)c(F)ccc2nc1Oc1c(Cl)cccc1Br` [IIb.05] gave a logP of 4.87.

`Cc1ccc(Oc2nc3ccc(F)c(F)c3nc2C)c(Br)c1` [IIb.09] had a logP of 4.92.

Take `Cc1nc2c(F)c(F)ccc2nc1Oc1ccc(F)cc1Br` [IIb.10]: the logP was found to be 4.54.

Consider `Cc1nc2c(F)c(F)ccc2nc1Oc1ccc(Cl)cc1Br` [IIb.11], for which the log partition coefficient (logP) is listed as 5.16.

In the case of `Cc1cccc(Oc2nc3ccc(F)c(F)c3nc2C)c1Br` [IIb.12], the logP was 4.85.

On to `COc1cccc(Oc2nc3ccc(F)c(F)c3nc2C)c1Br` [IIb.13], for which the lipophilicity (logP) is given as 4.19.

For `Fc1cccc(Oc2cnc3ccccc3n2)c1Br` [IIb.14], the logP is given as 3.78.

In turn, `Fc1cccc(Oc2cnc3c(F)c(F)ccc3n2)c1Br` [IIb.15] showed a logP of 3.97.

Turning to `Cc1nc2c(F)c(F)ccc2nc1Oc1cccc(F)c1Br` [IIb.16], the log partition coefficient (logP) was found to be 4.44.

In the case of `Cc1nc2ccccc2nc1Oc1cccc(F)c1Br` [IIb.17], the logP is 4.11.

The molecule `Cc1nc2c(F)c(F)ccc2nc1Oc1cccc(Cl)c1Br` [IIb.18] registered a log partition coefficient (logP) of 4.82.

Molecule `N#Cc1cc(Br)c(Oc2cnc3c(F)c(F)ccc3n2)cc1F` [IIb.19] displayed a logP of 3.81.

On to `Cc1nc2c(F)c(F)ccc2nc1Oc1cc(C#N)ccc1Br` [IIb.20], for which the logP came out at 4.03.

`N#Cc1ccc(F)c(Br)c1Oc1cnc2c(F)c(F)ccc2n1` [IIb.21] showed a logP of 3.72.

`Cc1nc2c(F)c(F)ccc2nc1Oc1cccc(C#N)c1Br` [IIb.22] showed a logP of 3.83.

`Cc1nc2c(F)c(F)ccc2nc1Oc1cccc(OC(F)(F)F)c1Br` [IIb.23] showed a lipophilicity (logP) of 5.08.

Turning to `Nc1ccccc1Nc1cnc2ccccc2c1` [IVa.01], the logP came to 1.28.

The molecule `Cc1nc2ccccc2cc1Oc1cccc(F)c1N` [IVa.02] came in with a logP of 2.15.

`Nc1ccccc1Oc1cnc2c(F)c(F)ccc2c1` [IVa.03] registered a logP of 2.71.

In the case of `Nc1c(F)cccc1Oc1cnc2c(F)c(F)ccc2c1` [IVa.04], the logP was determined as 3.02.

For `Cc1nc2c(F)c(F)ccc2cc1Oc1cccc(F)c1N` [IVa.06], the logP came out at 3.27.

On to `Cc1nc2ccccc2cc1Oc1ccccc1N` [IVa.07], for which the logP was determined as 1.66.

Molecule `C[Si](C)(Cc1ccccc1)c1ccccc1O` [IXa.06] showed a logP of 5.14.

In turn, `CCOc1nc2ccccc2cc1Oc1cccc(F)c1` [VIIa.02] registered a logP of 4.74.

For `CSc1nc2ccccc2cc1Oc1cccc(F)c1` [VIIa.03], the logP came to 4.92.

On to `Cc1nc2ccccc2cc1Oc1cccc(F)c1` [VIIa.04], for which the logP stood at 2.96.

In turn, `O=[N+]([O-])c1c(F)cccc1Oc1cnc2c(F)c(F)ccc2c1` [Va.01] returned a logP of 3.35.

Molecule `Cc1nc2c(F)c(F)ccc2cc1Oc1cccc(F)c1[N+](=O)[O-]` [Va.02] had a logP of 3.64.

Take `O=[N+]([O-])c1ccccc1Oc1cnc2c(F)c(F)ccc2c1` [Va.03]: the logP came out at 3.06.

As to `O=[N+]([O-])c1c(F)cccc1Oc1cnc2ccccc2c1` [Va.05], the logP is given as 3.13.

For `Cc1nc2ccccc2cc1Oc1cccc(F)c1[N+](=O)[O-]` [Va.06], the logP is listed as 3.15.

The molecule `O=[N+]([O-])c1ccccc1Oc1cnc2ccccc2c1` [Va.07] returned a logP of 1.62.

`Cc1nc2ccccc2cc1Oc1ccccc1[N+](=O)[O-]` [Va.08] showed a logP of 2.64.

In the case of `CC1(C)OB(Cc2ccccc2[Si](C)(C)C)OC1(C)C` [XIIa.01], the log partition coefficient (logP) is 5.68.

Molecule `C[Si](C)(c1ccccc1)c1ccccc1CBr` [XIa.03] came in with a log partition coefficient (logP) of 5.46.

The same data set, now with this note: logP Method B.
The molecule `CC[Si](C)(C)c1ccccc1O` [IXa.04] showed a log partition coefficient (logP) of 3.90.

Still in this data set, the particulars now being: reversed-phase HPLC column (C18), Method A: 40° C., 0.1% aqueous formic acid and acetonitrile.
Broadly, the chromatographic logP is lipophilicity estimated from chromatographic retention. High values mean a more lipophilic compound, low ones a more hydrophilic compound. Molecule `COc1cccc(Oc2cc3ccc(F)c(F)c3nc2C)c1Br` [IIa.14, 3-(2-bromo-3-methoxyphenoxy)-7,8-difluoro-2-methylquinoline] came in with a chromatographic logP of 4.11.

For `Fc1cccc(Oc2cnc3c(F)c(F)ccc3c2)c1Br` [IIa.15, 3-(2-bromo-3-fluorophenoxy)-7,8-difluoroquinoline], the chromatographic logP was determined as 3.9.

`Cc1nc2c(F)c(F)ccc2cc1Oc1cccc(F)c1Br` [IIa.16, 3-(2-bromo-3-fluorophenoxy)-7,8-difluoro-2-methylquinoline]: the chromatographic logP was found to be 4.29.

The molecule `Cc1c(Oc2cccc(F)c2Br)cnc2ccccc12` [IIa.17, 3-(2-bromo-3-fluorophenoxy)-4-methylquinoline] yielded a chromatographic logP of 3.89.

On to `Cc1nc2ccccc2cc1Oc1cccc(F)c1Br` [IIa.18, 3-(2-bromo-3-fluorophenoxy)-2-methylquinoline], for which the chromatographic logP was 3.58.

On to `Fc1cccc(Oc2cc3ccccc3nc2C(F)F)c1Br` [IIa.19, 3-(2-bromo-3-fluorophenoxy)-2-(difluoromethyl)quinoline], for which the chromatographic logP was found to be 3.99.

Molecule `Cc1nc2c(F)c(F)ccc2cc1Oc1cccc(Cl)c1Br` [IIa.20, 3-(2-bromo-3-chlorophenoxy)-7,8-difluoro-2-methylquinoline] had a chromatographic logP of 4.72.

Consider `Cc1nc2ccccc2cc1Oc1cccc(Cl)c1Br` [IIa.21, 3-(2-bromo-3-chlorophenoxy)-2-methylquinoline], for which the chromatographic logP was 3.99.

As for `Fc1cccc(Nc2cc3ccccc3nc2C(F)F)c1Br` [IIa.22, N-(2-bromo-3-fluorophenyl)-2-(difluoromethyl)quinolin-3-amine], the chromatographic logP was found to be 4.34.

With `Fc1ccc(Oc2cnc3c(Cl)cccc3c2)c(Cl)c1` [IIa.23, 8-chloro-3-(2-chloro-4-fluorophenoxy)quinoline], the chromatographic logP was 4.11.

For `Cc1nc2c(F)c(F)ccc2cc1Oc1cccc(OC(F)(F)F)c1Br` [IIa.24, 3-[2-bromo-3-(trifluoromethoxy)phenoxy]-7,8-difluoro-2-methylquinoline], the chromatographic logP stood at 4.9.

For the molecule `Cc1nc2ccccc2cc1Oc1ccc(Cl)cc1Br` [IIa.26, 3-(2-bromo-4-chlorophenoxy)-2-methylquinoline], the chromatographic logP was determined as 4.13.

Take `Cc1nc2c(F)c(F)ccc2cc1Oc1ccccc1N` [IVa.05, 2-[(7,8-difluoro-2-methylquinolin-3-yl)oxy]aniline]: the chromatographic logP is 2.99.

Turning to `Fc1cccc(Oc2cc3ccccc3nc2Cl)c1` [VIIa.01, 2-chloro-3-(3-fluorophenoxy)quinoline], the chromatographic logP stood at 3.99.

Molecule `Fc1cccc(Oc2cnc3ccccc3c2)c1` [VIIa.05, 3-(3-fluorophenoxy)quinoline] displayed a chromatographic logP of 3.21.

For `[O-][n+]1cc(Oc2cccc(F)c2)cc2ccccc21` [VIIa.06, 3-(3-fluorophenoxy)quinoline 1-oxide], the chromatographic logP was 2.14.

Turning to `Cc1nc2c(F)c(F)ccc2cc1Oc1ccccc1[N+](=O)[O-]` [Va.04, 7,8-difluoro-2-methyl-3-(2-nitrophenoxy)quinoline], the chromatographic logP was 3.37.

As to `CC(=O)COc1ccccc1[Si](C)(C)C` [XIV.01, 1-[2-(trimethylsilyl)phenoxy]acetone], the chromatographic logP is 1.39.

The molecule `C[Si](C)(c1ccc(Cl)cc1)c1ccccc1CBr` [XIa.06, [2-(bromomethyl)phenyl](4-chlorophenyl)dimethylsilane] came in with a chromatographic logP of 5.94.

The same data set, now with this note: reversed-phase HPLC column (C18), logP Method A.
Regarding `Cc1nc2c(F)c(F)ccc2cc1Oc1ccccc1N` [IVa.05, 2-[(7,8-difluoro-2-methylquinolin-3-yl)oxy]aniline], the chromatographic logP amounted to 2.99.

The molecule `CC[Si](CC)(CC)c1ccccc1O` [IX.01A] displayed a chromatographic logP of 4.72.

Consider `CC[Si](CC)(CC)c1c(O)cccc1F` [IX.02A], for which the chromatographic logP stood at 4.69.

In the case of `OC(c1cccc(F)c1)c1cnc2ccccc2c1` (stereo not drawn) [VII.01A], the chromatographic logP turned out to be 1.54.

In turn, `O=C(c1cccc(F)c1)c1cnc2ccccc2c1` [VII.02A] had a chromatographic logP of 2.73.

Turning to `Fc1cccc(Nc2cc3ccccc3nc2C(F)F)c1` [VII.03A], the chromatographic logP was determined as 3.68.

Take `[O-][S+](c1cccc(F)c1)c1cnc2ccccc2c1` (stereo not drawn) [VII.04A]: the chromatographic logP is 2.1.

`O=S(=O)(c1cccc(F)c1)c1cnc2ccccc2c1` [VII.05A] displayed a chromatographic logP of 2.68.

Turning to `Fc1cccc(Oc2cc3ccccc3nc2Cl)c1` [VIIa.01, 2-chloro-3-(3-fluorophenoxy)quinoline], the chromatographic logP was 3.99.

`Fc1cccc(Oc2cnc3ccccc3c2)c1` [VIIa.05, 3-(3-fluorophenoxy)quinoline]: the chromatographic logP is 3.21.

For `[O-][n+]1cc(Oc2cccc(F)c2)cc2ccccc21` [VIIa.06, 3-(3-fluorophenoxy)quinoline 1-oxide], the chromatographic logP was determined as 2.14.

The molecule `Cc1nc2c(F)c(F)ccc2cc1Oc1ccccc1[N+](=O)[O-]` [Va.04, 7,8-difluoro-2-methyl-3-(2-nitrophenoxy)quinoline] yielded a chromatographic logP of 3.42.

Consider `CC(=O)COc1ccccc1[Si](C)(C)C` [XIV.01, 1-[2-(trimethylsilyl)phenoxy]acetone], for which the chromatographic logP is 1.39.

In turn, `C[Si](C)(c1ccc(Cl)cc1)c1ccccc1CBr` [XIa.06, [2-(bromomethyl)phenyl](4-chlorophenyl)dimethylsilane] had a chromatographic logP of 5.94.

The next data set deals with Pyricularia oryzae. Nature of the data set: microbe, parasite or virus in culture. The format is cell-based. The settings on record: 1 ppm; inhibition of fungal growth, liquid culture, 5 days incubation.
In turn, `C[Si](C)(C)c1cc(F)ccc1Oc1ccnc2c(Cl)cccc12` [CMP2, 8-chloro-4-[4-fluoro-2-(trimethylsilyl)phenoxy]quinoline, reference compound] returned an Efficacy of 0%.

Staying with this data set, now noted: 4 ppm of active ingredient; 5 days incubation.
`C[Si](C)(C)c1cc(F)ccc1Oc1ccnc2c(Cl)cccc12` [CMP2, 8-chloro-4-[4-fluoro-2-(trimethylsilyl)phenoxy]quinoline, reference compound]: the “efficacy (inhibition of fungal growth)” value is given as “much lower efficacy”.

The same data set, now with this note: 4 ppm; inhibition of fungal growth, liquid culture, 5 days incubation.
Molecule `C[Si](C)(C)c1cc(F)ccc1Oc1ccnc2c(Cl)cccc12` [CMP2, 8-chloro-4-[4-fluoro-2-(trimethylsilyl)phenoxy]quinoline, reference compound] showed an Efficacy of 46%.

Staying with this data set, now noted: 20 ppm; inhibition of fungal growth, liquid culture, 5 days incubation.
Take `C[Si](C)(C)c1cc(F)ccc1Oc1ccnc2c(Cl)cccc12` [CMP2, 8-chloro-4-[4-fluoro-2-(trimethylsilyl)phenoxy]quinoline, reference compound]: the Efficacy worked out at 93%.
